From patent US8226943B2, “Antibodies to notch receptors” (OncoMed Pharmaceuticals, Inc., priority 2008, dated 2012)

How the values were obtained:
[1] = tested on: breast tumors T1, PE13, and B51; test: Gene Set Enrichment Analysis in treated breast tumors; assay type: in vivo, mice
From the text: Several pathways/gene sets that are regulated by antibody 59R1 in tumor cells were identified (Table 9) using Gene Set Enrichment Analysis (Mootha et al., 2003, Nature Genetics 34:267-73; Subramanian et al., 2005, Proc. Natl. Acad. Sci. USA 102:15545-50) in the breast tumors T1, PE13, and B51.

[2] = tested on: hJAG1-induced Notch2 signaling; test: Luciferase reporter assay, hJAG1-induced Notch2 signaling in Hela cells; assay type: cell-based, human; settings: 40 μg/ml
Procedure: (§1) Luciferase reporter assays were used to assay the 59R1 antibody for its ability to block hDLL4-, hJAG1-, and hJAG2-induced Notch2 signaling.
(§2) Hela cells that stably overexpress human Notch2 were transiently transfected with firefly luciferase with a synthetic 8×CBS promoter, pSPORT6 MAML-1, and Renilla luciferase-CMV as a transfection control. Cells were incubated with either 200 ng of immobilized hJAG1 (R&D systems) or hJAG2 (R&D systems) for 16 hours and then assayed using Dual-Glo (Promega) according to the manufacturer's instructions. 59R1 IgG2 antibody was at a concentration of 40 μg/ml. The gamma secretase inhibitor (GSI) dibenzazepine (DBZ) was used as a control at 1 μM.

[3] = tested on: Colo-205 colon tumors and PE-13 breast tumors; test: Pimonidazole staining for hypoxic regions in treated tumors; assay type: in vivo, mice
Procedure: Staining for hypoxic regions was performed in Colo-205 colon tumors and PE-13 breast tumors that had been treated either with 59R1 IgG2 antibody or with 1B711 control antibody. The staining was performed as described in Ridgway et al., 2006, Nature 444:1083-1087. Briefly, to measure hypoxia, pimonidazole-hydrochloride (HypoxyProbe, NPI, Burlington, Mass.), which forms long-lived protein adducts at partial pressure of oxygen less than approximately 10 mm Hg, was injected intraperitoneally at 60 mg/kg 1 hr prior to sacrifice. Tumors were then processed for histological analysis, and tumor sections were stained using anti-pimonidazole antibody following manufacturer's protocol (NPI). Photographs were taken using a BX51 microscope (Olympus, Center Valley, Pa.).
AF594-conjugated goat anti-rat F(ab′)2 was used to detect anti-CD31 antibody and FITC-conjugated goat anti-rabbit antibody was used to detect anti-pimonidazole antibody.

[4] = tested on: hJAG2-induced Notch2 signaling; test: Luciferase reporter assay, hJAG2-induced Notch2 signaling in Hela cells; assay type: cell-based, human; settings: 40 μg/ml
Procedure: as §1, §2

human Notch3 [5] = biological target: T1, human Notch3 (Homo sapiens, UniProt Q9UM47); test: FACS binding to transiently transfected HEK-293 cells, human Notch3; parameters: expressed in transfected cells
T1 sequence (Q9UM47 40-2321): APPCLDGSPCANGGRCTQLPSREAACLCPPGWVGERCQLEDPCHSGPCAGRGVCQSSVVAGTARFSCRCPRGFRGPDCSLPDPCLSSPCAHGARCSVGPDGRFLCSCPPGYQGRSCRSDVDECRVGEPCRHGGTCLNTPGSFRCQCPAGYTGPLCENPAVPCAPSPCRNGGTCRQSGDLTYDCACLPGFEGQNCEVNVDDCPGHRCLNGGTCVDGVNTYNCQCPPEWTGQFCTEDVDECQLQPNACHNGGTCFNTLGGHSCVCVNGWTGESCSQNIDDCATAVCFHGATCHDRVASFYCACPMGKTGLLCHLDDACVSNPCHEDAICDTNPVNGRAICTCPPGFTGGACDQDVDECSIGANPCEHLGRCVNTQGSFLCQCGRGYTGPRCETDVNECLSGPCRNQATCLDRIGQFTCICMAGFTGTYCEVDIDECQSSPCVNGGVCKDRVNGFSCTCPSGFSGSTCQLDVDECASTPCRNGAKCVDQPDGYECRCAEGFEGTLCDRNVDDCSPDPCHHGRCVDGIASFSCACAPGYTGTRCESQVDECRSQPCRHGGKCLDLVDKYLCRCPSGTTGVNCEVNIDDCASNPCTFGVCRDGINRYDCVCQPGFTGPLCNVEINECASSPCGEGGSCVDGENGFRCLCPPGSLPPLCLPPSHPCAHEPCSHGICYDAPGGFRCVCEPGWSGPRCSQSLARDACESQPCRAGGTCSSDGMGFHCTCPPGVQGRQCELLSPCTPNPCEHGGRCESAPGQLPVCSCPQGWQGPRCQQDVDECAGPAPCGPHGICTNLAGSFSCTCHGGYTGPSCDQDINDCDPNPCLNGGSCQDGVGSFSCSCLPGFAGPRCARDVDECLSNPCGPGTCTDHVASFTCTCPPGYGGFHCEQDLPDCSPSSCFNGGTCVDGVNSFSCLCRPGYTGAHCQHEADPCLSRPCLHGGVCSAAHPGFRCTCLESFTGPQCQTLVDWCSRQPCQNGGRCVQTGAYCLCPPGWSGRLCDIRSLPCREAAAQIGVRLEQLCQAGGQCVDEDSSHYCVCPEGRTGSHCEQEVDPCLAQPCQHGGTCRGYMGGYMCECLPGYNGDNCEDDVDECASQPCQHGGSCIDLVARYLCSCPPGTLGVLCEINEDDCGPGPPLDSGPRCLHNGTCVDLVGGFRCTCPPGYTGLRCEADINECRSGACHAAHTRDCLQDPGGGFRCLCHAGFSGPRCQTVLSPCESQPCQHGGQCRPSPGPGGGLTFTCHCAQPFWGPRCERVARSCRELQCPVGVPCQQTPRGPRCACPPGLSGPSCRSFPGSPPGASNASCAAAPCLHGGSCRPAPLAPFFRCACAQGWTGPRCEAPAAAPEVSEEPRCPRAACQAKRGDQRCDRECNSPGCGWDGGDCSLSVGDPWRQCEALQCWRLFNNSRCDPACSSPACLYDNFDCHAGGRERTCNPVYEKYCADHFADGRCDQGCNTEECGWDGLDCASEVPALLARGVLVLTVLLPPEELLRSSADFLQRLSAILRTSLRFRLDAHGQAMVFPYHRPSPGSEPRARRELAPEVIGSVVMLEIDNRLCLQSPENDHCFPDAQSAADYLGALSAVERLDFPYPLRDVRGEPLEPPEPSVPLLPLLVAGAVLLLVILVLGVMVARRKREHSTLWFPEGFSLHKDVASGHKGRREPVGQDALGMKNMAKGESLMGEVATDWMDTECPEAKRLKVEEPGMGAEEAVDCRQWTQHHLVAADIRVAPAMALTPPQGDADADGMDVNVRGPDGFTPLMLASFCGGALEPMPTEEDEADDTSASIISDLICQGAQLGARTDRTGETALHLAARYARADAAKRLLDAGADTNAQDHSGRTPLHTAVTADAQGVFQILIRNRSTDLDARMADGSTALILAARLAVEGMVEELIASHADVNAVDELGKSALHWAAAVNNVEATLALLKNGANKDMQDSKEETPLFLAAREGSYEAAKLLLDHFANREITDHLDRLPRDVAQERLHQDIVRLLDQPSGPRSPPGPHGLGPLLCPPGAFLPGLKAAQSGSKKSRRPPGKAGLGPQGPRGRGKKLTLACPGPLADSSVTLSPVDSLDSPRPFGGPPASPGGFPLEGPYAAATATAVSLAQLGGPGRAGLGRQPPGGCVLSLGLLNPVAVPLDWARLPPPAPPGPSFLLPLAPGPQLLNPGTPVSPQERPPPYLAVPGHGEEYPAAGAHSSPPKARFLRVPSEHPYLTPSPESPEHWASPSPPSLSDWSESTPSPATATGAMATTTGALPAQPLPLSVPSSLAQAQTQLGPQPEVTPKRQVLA
Procedure: The ability of the 59R1 IgG2 antibody to cross-react with other Notch receptors was determined by FACS assay using HEK-293 cells transiently transfected with the human Notch1, Notch2, Notch3 or Notch4 expression plasmid and green fluorescent protein (GFP) as a transfection control. GFP positive cells indicated expression of the transgene. The 59R1 IgG2 was added to the cells at 2 μg/ml and detected by PE-conjugated goat anti-human Fc gamma specific (Jackson Immunochemicals). All Notch constructs were full length.

human Notch2 = human Notch2 (Homo sapiens, UniProt Q04721); test: FACS binding to human Notch2 on stably transfected HEK-293 cells; parameters: expressed in transfected cells; host or cells: HEK-293, stably transfected; settings: HEK-293 stably overexpressing human Notch2
Chain of human Notch2 (Q04721 26-2471): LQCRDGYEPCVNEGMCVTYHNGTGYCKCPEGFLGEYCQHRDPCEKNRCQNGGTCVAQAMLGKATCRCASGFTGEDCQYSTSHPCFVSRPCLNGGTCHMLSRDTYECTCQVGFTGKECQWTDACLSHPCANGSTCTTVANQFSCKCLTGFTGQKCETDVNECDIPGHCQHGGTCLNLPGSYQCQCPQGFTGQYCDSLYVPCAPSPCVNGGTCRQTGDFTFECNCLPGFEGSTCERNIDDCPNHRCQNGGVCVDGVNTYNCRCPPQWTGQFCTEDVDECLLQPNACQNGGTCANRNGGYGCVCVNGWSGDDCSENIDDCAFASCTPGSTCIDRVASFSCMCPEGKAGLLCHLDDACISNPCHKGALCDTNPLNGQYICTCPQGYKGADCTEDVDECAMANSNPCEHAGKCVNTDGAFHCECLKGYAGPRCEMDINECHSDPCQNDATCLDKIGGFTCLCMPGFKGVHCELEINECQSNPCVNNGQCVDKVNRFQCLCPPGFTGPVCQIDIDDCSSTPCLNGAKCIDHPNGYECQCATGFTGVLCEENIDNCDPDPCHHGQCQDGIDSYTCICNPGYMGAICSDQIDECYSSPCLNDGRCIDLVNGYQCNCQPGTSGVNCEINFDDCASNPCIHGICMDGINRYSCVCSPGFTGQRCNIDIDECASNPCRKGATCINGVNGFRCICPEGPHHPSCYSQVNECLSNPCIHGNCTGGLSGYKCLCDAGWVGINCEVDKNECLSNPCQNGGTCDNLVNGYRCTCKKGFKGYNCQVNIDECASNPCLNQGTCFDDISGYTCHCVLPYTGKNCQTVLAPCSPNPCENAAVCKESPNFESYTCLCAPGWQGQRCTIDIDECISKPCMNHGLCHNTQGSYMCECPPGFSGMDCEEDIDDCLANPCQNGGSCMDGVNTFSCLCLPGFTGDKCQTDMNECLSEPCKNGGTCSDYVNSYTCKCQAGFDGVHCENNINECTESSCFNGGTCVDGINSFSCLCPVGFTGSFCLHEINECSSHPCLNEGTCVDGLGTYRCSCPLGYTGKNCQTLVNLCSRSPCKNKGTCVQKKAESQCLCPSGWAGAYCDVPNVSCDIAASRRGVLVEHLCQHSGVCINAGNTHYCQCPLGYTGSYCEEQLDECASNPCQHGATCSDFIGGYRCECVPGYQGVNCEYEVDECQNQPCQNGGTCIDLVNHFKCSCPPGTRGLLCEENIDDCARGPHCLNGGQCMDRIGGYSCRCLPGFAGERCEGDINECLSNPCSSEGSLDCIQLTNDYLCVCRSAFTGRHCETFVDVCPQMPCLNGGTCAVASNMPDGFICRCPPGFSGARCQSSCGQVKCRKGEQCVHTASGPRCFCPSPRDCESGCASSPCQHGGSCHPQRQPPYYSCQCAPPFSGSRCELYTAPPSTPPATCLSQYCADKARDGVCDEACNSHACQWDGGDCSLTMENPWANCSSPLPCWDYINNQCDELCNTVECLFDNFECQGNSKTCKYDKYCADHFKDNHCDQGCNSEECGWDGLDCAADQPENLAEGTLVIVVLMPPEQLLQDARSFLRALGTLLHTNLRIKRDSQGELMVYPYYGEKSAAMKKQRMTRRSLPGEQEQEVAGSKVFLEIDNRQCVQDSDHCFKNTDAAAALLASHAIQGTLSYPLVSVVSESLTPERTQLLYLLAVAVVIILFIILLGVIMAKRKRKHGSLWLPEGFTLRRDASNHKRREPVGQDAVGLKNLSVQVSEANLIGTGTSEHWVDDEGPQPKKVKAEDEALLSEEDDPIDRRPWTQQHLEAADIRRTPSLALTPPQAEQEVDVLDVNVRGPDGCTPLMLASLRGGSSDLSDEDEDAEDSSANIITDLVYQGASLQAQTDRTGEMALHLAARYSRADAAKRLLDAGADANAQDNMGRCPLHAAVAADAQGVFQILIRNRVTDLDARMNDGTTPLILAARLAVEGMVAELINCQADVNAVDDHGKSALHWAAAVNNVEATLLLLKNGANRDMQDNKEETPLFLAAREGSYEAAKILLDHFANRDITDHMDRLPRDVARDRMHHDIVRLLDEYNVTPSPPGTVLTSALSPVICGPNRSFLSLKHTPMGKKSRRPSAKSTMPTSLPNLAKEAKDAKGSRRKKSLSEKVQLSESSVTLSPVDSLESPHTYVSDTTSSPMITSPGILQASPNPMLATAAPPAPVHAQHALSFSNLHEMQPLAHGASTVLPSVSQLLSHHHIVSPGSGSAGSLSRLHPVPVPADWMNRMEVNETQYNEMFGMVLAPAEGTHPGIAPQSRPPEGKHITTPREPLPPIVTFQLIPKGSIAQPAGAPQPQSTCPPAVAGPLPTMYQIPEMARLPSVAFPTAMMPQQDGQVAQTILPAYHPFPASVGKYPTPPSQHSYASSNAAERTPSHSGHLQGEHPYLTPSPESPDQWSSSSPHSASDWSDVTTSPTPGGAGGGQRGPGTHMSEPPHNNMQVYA
Procedure: A particular Fab (59R1) was identified that bound the human Notch2 receptor and blocked binding of Jagged1 to human Notch2. Binding of the 59R1 Fab to human Notch2 was verified by FACS assay using a stable human cell line HEK-293 which overexpressed human Notch2 (hN2) (FIG. 1A). Fab binding was detected by phycoerythrin (PE)-conjugated goat anti-human Fab (Jackson Immunochemicals). […] Ligand binding and blocking was determined by incubating hJagged 1 extracellular domain (ECD) fused to human Fc constant region with the cells and Fabs selected from the phage library and using PE-conjugated goat anti-human Fc gamma specific antibodies (Jackson Immunochemicals) for detection.
In addition, the 59R1 IgG2 antibody was assayed for its ability to block binding of DLL4 to the human Notch 2 receptor by FACS analysis. HEK-293 cells stably overexpressing human Notch2 were incubated with the antibody at various concentration and then detected for hNotch2 binding (FIG. 1C) by PE-conjugated goat anti-human Fc gamma specific antibody, or ligand blocking activity (FIG. 1D). Ligand blocking was determined by incubating the cells with human DLL4 ECD tagged with the rabbit Fc constant region and the 59R1 antibody at a range of concentrations, and then detecting the hDLL4 by PE-conjugated donkey anti-rabbit antibody. […]

[6] = tested on: hDLL4-induced Notch2 signaling; test: Luciferase reporter assay, hDLL4-induced Notch2 signaling in Hela cells; assay type: cell-based, human; settings: antibody titrated from 40 μg/ml
Procedure: as §1
as §2, with “promoter (Ong et al., 2006, J. of Biological Chemistry, 281:5106-5119),” for “promoter,”, “100” for “either 200”, “hDLL4” for “hJAG1”, “with the indicated antibodies” for “or hJAG2 (R&D systems)”, “Control” for “59R1 IgG2”, “μg/ml. 59R1 IgG2 antibody was titrated, starting at 40 μg/ml, and then diluted by one-fourth.” for “μg/ml.”

human Notch3 [7] = biological target: T1, human Notch3; test: DLL4-Fc induced receptor activation in transfected PC3 cells, human Notch3; assay type: cell-based; parameters: expressed in transfected cells; host or cells: PC3 tumor cells, transient; settings: immobilized DLL4-Fc
Procedure: 59R5 was determined to have similar activity in blocking Notch2 and Notch3 signaling as 59R1. Receptor activation was determined in luciferase-based assays. PC3 tumor cells were transiently transfected with a human or mouse Notch receptor (human Notch2, murine Notch2, human Notch3, or murine Notch3) and […] inducible reporter construct. Transfected cells were incubated with different concentrations of 59R1 or 59R5 antibody in the presence of passively immobilized DLL4-Fc protein. Notch receptor activation was determined by measuring luciferase activity.

Substance	cell cycle gene pathways, myc-activating genes and several stem cell gene sets [1]	hJAG1-induced Notch2 reporter activity [2]	hypoxic regions (anti-pimonidazole antibody) versus 1B711 treated tumors ([3]; Colo-205 and PE13 tumors)	number of CD31-positive cells ([3]; treated tumors versus 1B711)	hJAG2-induced Notch2 reporter activity [4]	binding to full-length human Notch3 (FACS) (human Notch3 [5])	binding to human Notch2 (FACS) (human Notch2)	hDLL4-induced Notch2 reporter activity [6]	ligand-induced activation of human Notch3 receptor signaling (human Notch3 [7])
59R1: human IgG2 antibody binding Notch2 and Notch3; heavy and light chain SEQ ID NO:16 and 18; ATCC PTA-9547	down-regulated	inhibit	significantly more pronounced	remained unchanged	inhibit	specifically binds	confirmed	inhibit	
59R5: human antibody that specifically binds human Notch 2 and human Notch 3; heavy and light chain SEQ ID NO:49 and 18; ATCC PTA-10170									blocked
